This is an account of results in patent US20210255193A1, “LYSINE REACTIVE PROBES AND USES THEREOF” (The Scripps Research Institute, priority 2017, published 2021).

Assay in all cases: competitive isoTOP-ABPP
Holding throughout (type): binding

In experiment [1] the target is T1, G6PD Glucose-6-phosphate 1-dehydrogenase (Homo sapiens, UniProt P11413).
T1 construct: isoTOP-ABPP experiments performed in cell lysates (in vitro); endogenous in cells; host or cells: MDA-MB-231 soluble lysate
As to conditions: for isoTOP-ABPP ratio (R) at liganded lysine P11413_K171: sol, 231. In short, it runs like this:
(§1)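 Lysate + fragment (50 μM activated ester / 100 μM guanidinylating agent) or DMSO → 0.1 mM STP-alkyne, 1 h, RT → CuAAC to TEV tags (compound light, DMSO heavy) → LC-MS. R = heavy/light MS1 area; liganded lysine if R≥4.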

The target of experiment [2] is T2, GLOD4 Glyoxalase domain-containing protein 4 (Homo sapiens, UniProt Q9HC38).
T2 construct: endogenous in cells; host or cells: MDA-MB-231 (soluble fraction of lysate)
T2 sequence (Q9HC38 1-313): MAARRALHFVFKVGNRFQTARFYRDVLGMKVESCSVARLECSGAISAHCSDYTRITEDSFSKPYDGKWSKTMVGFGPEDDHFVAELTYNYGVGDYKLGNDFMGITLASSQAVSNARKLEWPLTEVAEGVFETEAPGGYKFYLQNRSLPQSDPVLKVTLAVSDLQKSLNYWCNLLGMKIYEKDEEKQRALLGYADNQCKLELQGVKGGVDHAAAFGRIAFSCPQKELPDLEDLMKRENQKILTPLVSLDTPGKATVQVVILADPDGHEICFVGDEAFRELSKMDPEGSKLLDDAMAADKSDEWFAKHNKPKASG
The note with it: for isoTOP-ABPP ratio (R) at liganded lysine Q9HC38_K305: sol, 231. In short, it runs like this: as §1

Experiment [3] concerns the target T3, GLUD1 Glutamate dehydrogenase 1, mitochondrial (Homo sapiens, UniProt P00367).
T3 construct: isoTOP-ABPP experiments performed in cell lysates (in vitro); endogenous in cells; host or cells: MDA-MB-231 soluble lysate
The note with it: for isoTOP-ABPP ratio (R) at liganded lysine P00367_K480: sol, 231; for isoTOP-ABPP ratio, lysine P00367_K480: possible other lysine P00367_K477. In outline:
as §1

Experiment [4] has as its target T4, GOLGB1 Golgin subfamily B member 1 (Homo sapiens, UniProt Q14789).
T4 construct: isoTOP-ABPP experiments performed in cell lysates (in vitro); endogenous in cells; host or cells: soluble proteome of human cancer cell lines (MDA-MB-231, Ramos, Jurkat)
As to conditions: for isoTOP-ABPP ratio (R) at liganded lysine Q14789_K103: sol, 231. In short, it runs like this:
as §1

For experiment [5], the target named is T5, XRCC6 X-ray repair cross-complementing protein 6 (Homo sapiens, UniProt P12956).
T5 construct: isoTOP-ABPP experiments performed in cell lysates (in vitro); endogenous in cells; host or cells: soluble proteome of human cancer cell lines (MDA-MB-231; Ramos and Jurkat also prepared)
T5 sequence (P12956 2-609 limits assumed): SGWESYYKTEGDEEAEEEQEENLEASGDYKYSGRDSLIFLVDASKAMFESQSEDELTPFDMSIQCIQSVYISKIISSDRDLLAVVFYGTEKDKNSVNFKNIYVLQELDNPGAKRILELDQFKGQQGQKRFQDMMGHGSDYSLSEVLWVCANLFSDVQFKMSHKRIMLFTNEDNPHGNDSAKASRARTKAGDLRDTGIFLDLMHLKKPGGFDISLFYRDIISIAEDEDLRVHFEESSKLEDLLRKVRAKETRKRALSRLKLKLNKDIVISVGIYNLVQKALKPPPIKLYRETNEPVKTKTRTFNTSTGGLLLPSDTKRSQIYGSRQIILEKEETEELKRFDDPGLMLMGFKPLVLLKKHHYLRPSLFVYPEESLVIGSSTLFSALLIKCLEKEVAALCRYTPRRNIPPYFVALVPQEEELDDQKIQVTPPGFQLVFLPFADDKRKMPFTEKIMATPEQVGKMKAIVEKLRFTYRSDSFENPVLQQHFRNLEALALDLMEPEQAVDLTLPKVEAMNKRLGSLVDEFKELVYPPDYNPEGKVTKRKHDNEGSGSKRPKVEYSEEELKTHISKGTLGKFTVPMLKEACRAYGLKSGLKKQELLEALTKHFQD
T5 sequence (P13010 2-732 partner limits assumed): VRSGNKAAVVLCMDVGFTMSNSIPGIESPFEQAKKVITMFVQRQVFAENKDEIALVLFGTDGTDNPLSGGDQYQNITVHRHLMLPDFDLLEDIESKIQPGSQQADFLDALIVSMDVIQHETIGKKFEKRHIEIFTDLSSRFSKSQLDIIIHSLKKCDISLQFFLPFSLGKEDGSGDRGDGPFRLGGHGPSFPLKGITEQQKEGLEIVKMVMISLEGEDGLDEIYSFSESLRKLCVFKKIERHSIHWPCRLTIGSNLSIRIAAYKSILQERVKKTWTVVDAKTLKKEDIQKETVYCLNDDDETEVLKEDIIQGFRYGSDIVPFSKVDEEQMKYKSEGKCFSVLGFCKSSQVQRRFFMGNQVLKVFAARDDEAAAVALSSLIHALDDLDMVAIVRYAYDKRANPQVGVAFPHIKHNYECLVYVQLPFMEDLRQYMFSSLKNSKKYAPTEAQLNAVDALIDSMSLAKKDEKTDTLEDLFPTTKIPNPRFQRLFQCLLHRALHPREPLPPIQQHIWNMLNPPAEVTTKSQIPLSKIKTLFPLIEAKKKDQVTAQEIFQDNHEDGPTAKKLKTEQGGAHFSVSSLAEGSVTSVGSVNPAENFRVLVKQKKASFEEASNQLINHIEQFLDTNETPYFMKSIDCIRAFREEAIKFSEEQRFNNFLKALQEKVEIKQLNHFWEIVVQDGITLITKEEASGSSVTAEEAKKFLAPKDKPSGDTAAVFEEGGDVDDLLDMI
The note with it: for isoTOP-ABPP ratio (R) at liganded lysine P12956_K351: sol, 231. In outline: as §1

Experiment [6] deals with T6, POLR2L DNA-directed RNA polymerases I, II, and III subunit (Homo sapiens, UniProt P62875).
T6 construct: isoTOP-ABPP experiments performed in cell lysates (in vitro); endogenous in cells; host or cells: soluble proteome of human cancer cell lines (MDA-MB-231, Ramos, Jurkat)
As to conditions: for isoTOP-ABPP ratio, lysine P62875_K67: 50 uM_231_sol_in vitro. In short, it runs like this:
as §1

T4 sequence (Q14789 whole entry): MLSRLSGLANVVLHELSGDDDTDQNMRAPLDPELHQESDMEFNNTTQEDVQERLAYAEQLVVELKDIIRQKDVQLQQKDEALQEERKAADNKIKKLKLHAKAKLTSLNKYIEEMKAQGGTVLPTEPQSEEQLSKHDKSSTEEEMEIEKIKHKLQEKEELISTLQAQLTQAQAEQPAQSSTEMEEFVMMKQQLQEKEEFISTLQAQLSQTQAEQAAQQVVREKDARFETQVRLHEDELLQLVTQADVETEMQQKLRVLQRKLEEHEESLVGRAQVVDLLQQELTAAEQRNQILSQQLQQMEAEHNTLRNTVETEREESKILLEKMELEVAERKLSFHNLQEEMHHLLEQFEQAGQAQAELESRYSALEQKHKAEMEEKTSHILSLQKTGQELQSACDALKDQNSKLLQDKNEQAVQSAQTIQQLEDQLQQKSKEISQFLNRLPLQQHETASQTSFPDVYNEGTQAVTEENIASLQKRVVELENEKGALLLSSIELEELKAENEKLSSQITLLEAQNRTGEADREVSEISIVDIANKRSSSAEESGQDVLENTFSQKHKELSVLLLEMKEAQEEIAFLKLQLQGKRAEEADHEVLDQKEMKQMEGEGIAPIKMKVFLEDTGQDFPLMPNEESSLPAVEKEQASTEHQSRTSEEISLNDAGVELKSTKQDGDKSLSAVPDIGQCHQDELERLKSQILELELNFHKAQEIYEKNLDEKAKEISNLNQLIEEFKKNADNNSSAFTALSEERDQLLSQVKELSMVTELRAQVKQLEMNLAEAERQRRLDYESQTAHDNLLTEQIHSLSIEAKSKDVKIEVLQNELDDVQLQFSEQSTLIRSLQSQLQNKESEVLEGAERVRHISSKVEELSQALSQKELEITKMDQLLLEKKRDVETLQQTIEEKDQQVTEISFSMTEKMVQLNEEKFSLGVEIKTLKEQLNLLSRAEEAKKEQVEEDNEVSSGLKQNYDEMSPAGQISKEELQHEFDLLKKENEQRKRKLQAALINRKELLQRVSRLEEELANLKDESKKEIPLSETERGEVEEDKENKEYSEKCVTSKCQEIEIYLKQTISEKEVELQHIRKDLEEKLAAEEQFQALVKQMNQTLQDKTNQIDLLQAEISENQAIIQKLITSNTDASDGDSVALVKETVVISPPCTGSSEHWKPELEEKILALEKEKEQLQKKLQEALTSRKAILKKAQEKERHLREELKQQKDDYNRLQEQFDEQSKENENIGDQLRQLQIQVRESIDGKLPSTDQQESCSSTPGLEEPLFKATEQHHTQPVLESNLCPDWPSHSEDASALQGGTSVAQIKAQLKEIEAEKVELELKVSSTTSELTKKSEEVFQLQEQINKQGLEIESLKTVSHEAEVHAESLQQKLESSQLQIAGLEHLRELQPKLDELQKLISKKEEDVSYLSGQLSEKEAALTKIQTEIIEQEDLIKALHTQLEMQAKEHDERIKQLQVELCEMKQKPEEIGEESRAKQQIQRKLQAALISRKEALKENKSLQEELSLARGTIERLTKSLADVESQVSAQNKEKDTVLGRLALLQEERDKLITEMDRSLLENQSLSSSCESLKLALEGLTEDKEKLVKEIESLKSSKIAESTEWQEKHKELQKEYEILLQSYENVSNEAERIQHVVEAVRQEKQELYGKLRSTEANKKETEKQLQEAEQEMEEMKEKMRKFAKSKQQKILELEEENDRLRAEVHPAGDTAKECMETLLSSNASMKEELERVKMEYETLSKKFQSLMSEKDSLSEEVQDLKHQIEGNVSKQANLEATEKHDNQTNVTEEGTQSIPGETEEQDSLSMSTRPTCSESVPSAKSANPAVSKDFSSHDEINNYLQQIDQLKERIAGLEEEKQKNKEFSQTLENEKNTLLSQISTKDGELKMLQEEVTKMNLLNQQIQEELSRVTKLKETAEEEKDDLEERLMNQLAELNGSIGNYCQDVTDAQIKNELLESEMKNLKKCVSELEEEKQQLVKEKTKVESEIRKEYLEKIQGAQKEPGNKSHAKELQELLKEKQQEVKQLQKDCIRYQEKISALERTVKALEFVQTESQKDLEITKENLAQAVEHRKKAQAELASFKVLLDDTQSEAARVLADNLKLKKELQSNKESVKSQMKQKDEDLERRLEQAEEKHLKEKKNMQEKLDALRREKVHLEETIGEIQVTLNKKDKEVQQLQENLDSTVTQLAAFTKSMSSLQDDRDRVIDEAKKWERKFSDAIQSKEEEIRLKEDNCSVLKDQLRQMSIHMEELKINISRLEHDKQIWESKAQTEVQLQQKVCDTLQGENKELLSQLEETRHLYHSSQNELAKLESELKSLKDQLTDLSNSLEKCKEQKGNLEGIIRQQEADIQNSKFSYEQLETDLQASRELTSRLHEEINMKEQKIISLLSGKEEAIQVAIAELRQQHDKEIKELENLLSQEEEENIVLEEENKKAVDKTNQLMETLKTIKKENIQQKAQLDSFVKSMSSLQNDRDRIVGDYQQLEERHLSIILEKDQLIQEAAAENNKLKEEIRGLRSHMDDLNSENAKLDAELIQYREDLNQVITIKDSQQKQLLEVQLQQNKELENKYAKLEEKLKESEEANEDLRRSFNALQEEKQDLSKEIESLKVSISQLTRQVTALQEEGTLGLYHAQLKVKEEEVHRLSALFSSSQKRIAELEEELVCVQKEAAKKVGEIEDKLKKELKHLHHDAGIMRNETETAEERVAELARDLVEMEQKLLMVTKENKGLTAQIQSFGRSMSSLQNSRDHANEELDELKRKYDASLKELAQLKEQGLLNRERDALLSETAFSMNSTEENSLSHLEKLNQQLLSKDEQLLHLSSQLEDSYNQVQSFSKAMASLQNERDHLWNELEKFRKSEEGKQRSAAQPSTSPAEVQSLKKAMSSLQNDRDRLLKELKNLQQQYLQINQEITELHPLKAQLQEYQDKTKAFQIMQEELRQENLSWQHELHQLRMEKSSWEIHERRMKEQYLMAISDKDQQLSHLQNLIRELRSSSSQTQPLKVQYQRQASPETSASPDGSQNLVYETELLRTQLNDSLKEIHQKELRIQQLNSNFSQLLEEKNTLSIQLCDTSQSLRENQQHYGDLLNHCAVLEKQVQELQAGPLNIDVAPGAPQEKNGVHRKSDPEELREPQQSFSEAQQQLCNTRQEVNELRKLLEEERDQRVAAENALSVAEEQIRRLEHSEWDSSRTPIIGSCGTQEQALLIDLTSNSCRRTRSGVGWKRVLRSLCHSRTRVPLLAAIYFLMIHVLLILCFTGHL
T1 sequence (P11413 whole entry): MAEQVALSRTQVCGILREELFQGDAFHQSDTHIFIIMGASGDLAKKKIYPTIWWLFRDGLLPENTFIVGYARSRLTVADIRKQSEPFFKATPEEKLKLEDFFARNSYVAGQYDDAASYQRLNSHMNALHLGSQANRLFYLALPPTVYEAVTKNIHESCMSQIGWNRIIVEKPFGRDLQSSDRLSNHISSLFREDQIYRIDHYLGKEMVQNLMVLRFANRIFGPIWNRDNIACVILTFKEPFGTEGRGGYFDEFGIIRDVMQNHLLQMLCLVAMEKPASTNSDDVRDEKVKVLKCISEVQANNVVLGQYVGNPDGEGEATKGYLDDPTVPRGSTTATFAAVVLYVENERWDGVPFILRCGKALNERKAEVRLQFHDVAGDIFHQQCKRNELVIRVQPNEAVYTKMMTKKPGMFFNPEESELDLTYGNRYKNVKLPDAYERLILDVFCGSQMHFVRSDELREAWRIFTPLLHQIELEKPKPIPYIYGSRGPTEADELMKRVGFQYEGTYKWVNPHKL

Consider `COc1cc(CCC(=O)Oc2ccc([N+](=O)[O-])cc2[N+](=O)[O-])cc(OC)c1OC` [fragment 33, 2,4-Dinitrophenyl 3-(3,4,5-trimethoxyphenyl)propanoate], for which the “isoTOP-ABPP reactivity ratio at lysine P11413_K171” value in experiment [1] (50 uM, 231 sol, in vitro) worked out at 16.3. The “isoTOP-ABPP reactivity ratio at lysine Q9HC38_K305” value in experiment [2] (50 uM, 231 sol, in vitro) is 0.4. Also, the “isoTOP-ABPP reactivity ratio at lysine P00367_K480” value in experiment [3] (50 uM, 231 sol, in vitro) amounted to 6.2. In addition, the “isoTOP-ABPP reactivity ratio at lysine Q14789_K103” value in experiment [4] (50 uM, 231 sol, in vitro) is recorded as 1.0. In addition, the “isoTOP-ABPP reactivity ratio at lysine P12956_K351” value in experiment [5] (50 uM, 231 sol, in vitro) was 2.5.

In the case of `O=C(CCc1coc2cc(F)ccc2c1=O)Oc1ccc([N+](=O)[O-])cc1[N+](=O)[O-]` [fragment 36, 2,4-Dinitrophenyl 3-(7-fluoro-4-oxo-4H-chromen-3-yl)propanoate], in experiment [1] (50 uM, in vitro), the “isoTOP-ABPP ratio (R) at liganded lysine P11413_K171” value turned out to be 1.0. Besides, the “isoTOP-ABPP ratio (R) at liganded lysine P00367_K480” value in experiment [3] (50 uM, in vitro) was determined as 3.2. In addition, in experiment [4] (50 uM, in vitro), the “isoTOP-ABPP ratio (R) at liganded lysine Q14789_K103” value came to 0.9. Further, in experiment [6] (50 uM, in vitro, sol, 231), the “isoTOP-ABPP ratio (R) at liganded lysine P62875_K67” value is on record as 4.1. The “isoTOP-ABPP ratio (R) at liganded lysine P12956_K351” value in experiment [5] (50 uM, in vitro) came out at 2.1.

Regarding `O=C(CC12CC3CC(CC(C3)C1)C2)Oc1ccc([N+](=O)[O-])cc1[N+](=O)[O-]` [fragment 38, 2,4-Dinitrophenyl 2-(adamantan-1-yl)acetate], the “isoTOP-ABPP ratio (R) at liganded lysine P11413_K171” value in experiment [1] (50 uM, in vitro) is reported as 0.9. Besides, the “isoTOP-ABPP ratio (R) at liganded lysine Q9HC38_K305” value in experiment [2] (50 uM, in vitro) was 20.0. In experiment [3] (50 uM, in vitro), the “isoTOP-ABPP ratio (R) at liganded lysine P00367_K480” value was 1.3. Also, the “isoTOP-ABPP ratio (R) at liganded lysine Q14789_K103” value in experiment [4] (50 uM, in vitro) came to 0.9. Besides, in experiment [5] (50 uM, in vitro), the “isoTOP-ABPP ratio (R) at liganded lysine P12956_K351” value was found to be 3.3.

On to `CC(=O)Oc1ccc([N+](=O)[O-])cc1[N+](=O)[O-]` [fragment 43, 2,4-Dinitrophenyl acetate], for which the “isoTOP-ABPP ratio (R) at liganded lysine P11413_K171” value in experiment [1] (50 uM, in vitro) amounted to 1.0. Moreover, in experiment [2] (50 uM, in vitro), the “isoTOP-ABPP ratio (R) at liganded lysine Q9HC38_K305” value was 0.7. For the same compound, the “isoTOP-ABPP ratio (R) at liganded lysine P00367_K480” value in experiment [3] (50 uM, in vitro) stood at 3.9. The “isoTOP-ABPP ratio (R) at liganded lysine Q14789_K103” value in experiment [4] (50 uM, in vitro) was found to be 1.0. Further, the “isoTOP-ABPP ratio (R) at liganded lysine P12956_K351” value in experiment [5] (50 uM, in vitro) is recorded as 1.5.

For `O=C(ON1C(=O)CCC1=O)c1cc(C(F)(F)F)cc(C(F)(F)F)c1` [fragment 46, 3,5-Bis(trifluoromethyl)benzoic acid NHS ester], in experiment [1] (50 uM_231_sol_in vitro), the “isoTOP-ABPP ratio, lysine P11413_K171” value was 0.9. The “isoTOP-ABPP ratio, lysine P00367_K480” value in experiment [3] (50 uM_231_sol_in vitro) is 1.5. Moreover, the “isoTOP-ABPP ratio, lysine Q14789_K103” value in experiment [4] (50 uM_231_sol_in vitro) amounted to 1.2. Moreover, the “isoTOP-ABPP ratio, lysine P62875_K67” value in experiment [6] was 1.0. In addition, in experiment [5] (50 uM_231_sol_in vitro), the “isoTOP-ABPP ratio, lysine P12956_K351” value came to 2.5.

For `O=C(Oc1c(F)c(F)c(C(F)(F)F)c(F)c1F)c1cc(C(F)(F)F)cc(C(F)(F)F)c1` [fragment 47, 2,3,5,6-Tetrafluoro-4-(trifluoromethyl)phenyl 3,5-bis(trifluoromethyl)benzoate], the “isoTOP-ABPP ratio, lysine P11413_K171” value in experiment [1] (50 uM_231_sol_in vitro) was found to be 1.0. In addition, the “isoTOP-ABPP ratio, lysine P00367_K480” value in experiment [3] (50 uM_231_sol_in vitro) is 2.0. For the same compound, the “isoTOP-ABPP ratio, lysine Q14789_K103” value in experiment [4] (50 uM_231_sol_in vitro) stood at 1.0. In addition, the “isoTOP-ABPP ratio, lysine P62875_K67” value in experiment [6] is 1.0. The “isoTOP-ABPP ratio, lysine P12956_K351” value in experiment [5] (50 uM_231_sol_in vitro) is 1.4.

With `O=C(Oc1c(F)c(F)cc(F)c1F)c1cc(C(F)(F)F)cc(C(F)(F)F)c1` [fragment 48, 2,3,5,6-Tetrafluorophenyl 3,5-bis(trifluoromethyl)benzoate], the “isoTOP-ABPP ratio, lysine P11413_K171” value in experiment [1] (50 uM_231_sol_in vitro) was 0.9. In addition, the “isoTOP-ABPP ratio, lysine P00367_K480” value in experiment [3] (50 uM_231_sol_in vitro) turned out to be 1.5. Further, in experiment [4] (50 uM_231_sol_in vitro), the “isoTOP-ABPP ratio, lysine Q14789_K103” value is given as 1.1. Moreover, the “isoTOP-ABPP ratio, lysine P62875_K67” value in experiment [6] was determined as 0.9. Moreover, the “isoTOP-ABPP ratio, lysine P12956_K351” value in experiment [5] (50 uM_231_sol_in vitro) stood at 1.5.

As for `COC(=O)NC(=NC(=O)OCC1c2ccccc2-c2ccccc21)n1cccn1` [fragment 49, N-Methoxycarbonyl-N′-9-fluorenylmethoxycarbonyl-pyrazole-1-carboxamidine], the “isoTOP-ABPP ratio, lysine P11413_K171” value in experiment [1] (100 uM_231_sol_in vitro) worked out at 1.2. In addition, in experiment [2] (100 uM_231_sol_in vitro), the “isoTOP-ABPP ratio, lysine Q9HC38_K305” value came out at 1.2. For the same compound, the “isoTOP-ABPP ratio, lysine P00367_K480” value in experiment [3] (100 uM_231_sol_in vitro) is 2.0. The “isoTOP-ABPP ratio, lysine Q14789_K103” value in experiment [4] (100 uM_231_sol_in vitro) is listed as 1.8. Besides, the “isoTOP-ABPP ratio, lysine P12956_K351” value in experiment [5] (100 uM_231_sol_in vitro) is recorded as 20.0.
